The target of one experiment is D(1A) dopamine receptor (Rattus norvegicus, UniProt P18901). Description: Displacement of [3H]SCH 23390 from dopamine D1 receptor in rat corpora striatum homogenates after 15 mins by liquid scintillation counting. (In general: Displacement assays read how much labelled ligand stays bound in the presence of the test substance.)
For experiment [1], the target named is T1, 5-hydroxytryptamine receptor 2C (Rattus norvegicus, UniProt P08909).
T1 sequence (P08909 whole entry): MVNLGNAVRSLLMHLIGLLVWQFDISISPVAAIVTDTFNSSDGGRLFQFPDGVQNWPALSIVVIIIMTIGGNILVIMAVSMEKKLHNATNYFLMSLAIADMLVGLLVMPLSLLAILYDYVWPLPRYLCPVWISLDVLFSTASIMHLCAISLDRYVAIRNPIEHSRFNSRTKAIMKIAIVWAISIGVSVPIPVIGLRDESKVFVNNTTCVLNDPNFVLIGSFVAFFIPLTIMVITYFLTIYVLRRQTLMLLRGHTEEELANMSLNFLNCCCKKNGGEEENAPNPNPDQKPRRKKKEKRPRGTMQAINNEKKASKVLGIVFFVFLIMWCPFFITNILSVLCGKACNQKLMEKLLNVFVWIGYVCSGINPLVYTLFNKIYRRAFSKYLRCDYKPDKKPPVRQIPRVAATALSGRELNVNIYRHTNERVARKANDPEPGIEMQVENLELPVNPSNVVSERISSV
Description: Displacement of [3H]mesulergine from 5HT2C receptor in Sprague-Dawley rat frontal cortical homogenates after 15 mins.

The subject of another experiment is PC-3. The experiment is described as follows: Antiproliferative activity against human PC3 cells assessed as growth inhibition after 96 hrs by SRB assay. It counts as functional, cell-based. Particulars: for IC50: PC-3, 96 h. In general terms: In SRB staining, fixed cells bind dye roughly in proportion to their protein.
The target in experiment [2] is T2, Adrenergic receptor alpha-1 (Rattus norvegicus, UniProt P15823+P23944+P43140).
T2 sequence (P15823 whole entry): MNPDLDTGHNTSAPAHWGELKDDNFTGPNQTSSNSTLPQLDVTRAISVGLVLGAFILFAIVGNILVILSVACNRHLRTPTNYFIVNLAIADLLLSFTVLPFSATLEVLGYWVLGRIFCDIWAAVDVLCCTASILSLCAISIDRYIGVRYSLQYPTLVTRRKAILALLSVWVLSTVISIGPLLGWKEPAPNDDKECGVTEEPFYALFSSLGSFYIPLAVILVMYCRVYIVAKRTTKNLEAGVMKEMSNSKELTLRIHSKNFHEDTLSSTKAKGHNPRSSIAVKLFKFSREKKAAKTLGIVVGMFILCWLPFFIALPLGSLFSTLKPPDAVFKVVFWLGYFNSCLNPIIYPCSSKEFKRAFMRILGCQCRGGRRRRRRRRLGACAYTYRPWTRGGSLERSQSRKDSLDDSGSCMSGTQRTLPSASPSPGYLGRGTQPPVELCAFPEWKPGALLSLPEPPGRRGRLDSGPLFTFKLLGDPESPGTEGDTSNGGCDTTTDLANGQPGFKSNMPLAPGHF
T2 sequence (P23944 whole entry): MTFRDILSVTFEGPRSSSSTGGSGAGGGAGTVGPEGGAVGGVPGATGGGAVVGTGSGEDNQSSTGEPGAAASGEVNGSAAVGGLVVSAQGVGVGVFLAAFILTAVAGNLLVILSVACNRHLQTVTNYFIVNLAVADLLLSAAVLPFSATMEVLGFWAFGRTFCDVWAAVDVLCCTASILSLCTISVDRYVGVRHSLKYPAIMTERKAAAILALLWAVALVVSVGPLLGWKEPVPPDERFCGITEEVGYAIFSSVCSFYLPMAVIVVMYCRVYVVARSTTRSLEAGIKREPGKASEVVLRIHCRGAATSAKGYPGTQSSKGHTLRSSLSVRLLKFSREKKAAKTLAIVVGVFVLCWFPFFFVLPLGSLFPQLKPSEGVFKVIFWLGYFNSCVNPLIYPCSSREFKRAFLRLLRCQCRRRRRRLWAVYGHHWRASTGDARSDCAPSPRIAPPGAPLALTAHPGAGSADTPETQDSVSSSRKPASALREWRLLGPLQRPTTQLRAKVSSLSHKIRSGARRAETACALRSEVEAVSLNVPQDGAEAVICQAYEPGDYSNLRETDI
T2 sequence (P43140 whole entry): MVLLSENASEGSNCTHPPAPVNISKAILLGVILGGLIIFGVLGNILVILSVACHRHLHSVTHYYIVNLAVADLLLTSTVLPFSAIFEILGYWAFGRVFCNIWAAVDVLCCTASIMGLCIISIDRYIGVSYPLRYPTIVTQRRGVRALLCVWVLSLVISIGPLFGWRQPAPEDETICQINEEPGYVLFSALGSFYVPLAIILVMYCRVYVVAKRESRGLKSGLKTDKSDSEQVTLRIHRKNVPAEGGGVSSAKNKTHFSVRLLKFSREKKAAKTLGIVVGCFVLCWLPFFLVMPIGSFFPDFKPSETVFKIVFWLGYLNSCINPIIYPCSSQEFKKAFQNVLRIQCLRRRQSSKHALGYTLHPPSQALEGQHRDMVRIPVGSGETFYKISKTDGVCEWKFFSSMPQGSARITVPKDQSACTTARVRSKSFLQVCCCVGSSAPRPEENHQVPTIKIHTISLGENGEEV
The experiment is described as follows: Displacement [3H]prazosin from alpha1 adrenergic receptor in rat brain cortex homogenates after 30 mins by liquid scintillation counting. The format is tissue-based.

Active and inactive are the calls of the source. No cut-off for these calls is given here. Where only a bound is given, the exact number is not on record here.

These results are taken from ChEMBL document CHEMBL1781926, “Synthesis of 1-naphtylpiperazine derivatives as serotoninergic ligands and their evaluation as antiproliferative agents” (Eur J Med Chem, 2011).

In general, Ki refers to a dissociation constant, usually derived from enzyme kinetics or from competition with a known ligand. As usually defined, the IC50 is the midpoint of a concentration-inhibition curve.

Sequence of D(1A) dopamine receptor (P18901 whole entry): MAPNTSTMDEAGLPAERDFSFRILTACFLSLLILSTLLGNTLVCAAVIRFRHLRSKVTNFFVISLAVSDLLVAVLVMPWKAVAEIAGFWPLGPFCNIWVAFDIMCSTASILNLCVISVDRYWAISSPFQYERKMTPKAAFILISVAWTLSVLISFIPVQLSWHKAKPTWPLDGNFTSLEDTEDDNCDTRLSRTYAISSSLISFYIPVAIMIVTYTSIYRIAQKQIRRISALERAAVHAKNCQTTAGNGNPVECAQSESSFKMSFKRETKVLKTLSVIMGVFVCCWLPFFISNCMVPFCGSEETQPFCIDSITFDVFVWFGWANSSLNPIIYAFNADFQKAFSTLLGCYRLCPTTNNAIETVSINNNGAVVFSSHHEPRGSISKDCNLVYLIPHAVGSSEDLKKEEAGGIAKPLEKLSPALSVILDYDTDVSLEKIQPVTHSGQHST

As to `O=c1c2ccccc2nnn1CCCN1CCN(c2cccc3ccccc23)CC1`, the Ki is over 10 µM on D(1A) dopamine receptor, over 10 µM in experiment [1] (read-out: Ki) and 0.562 µM in experiment [2]. For the same compound, the “growth inhibition (GI)” value in the experiment on PC-3 is “Dose-dependent effect”. For the same compound, the half-inhibitory concentration (IC50) in the experiment with PC-3 was 10.5 µM.

As for `O=c1c2ccccc2nnn1CCN1CCN(c2cccc3ccccc23)CC1`, the inhibition constant (Ki) was over 10 µM on D(1A) dopamine receptor, over 10 µM in experiment [1] (read-out: Ki) and 0.112 µM in experiment [2]. For the same compound, in the experiment on PC-3, the “growth inhibition (GI)” value was “Dose-dependent effect”. Further, in the experiment with PC-3, the half-maximal inhibitory concentration (IC50) was found to be 10.6 µM.

As for `O=C1C2C3C=CC(C3)C2C(=O)N1OCCN1CCN(c2cccc3ccccc23)CC1` (stereo unspecified), the inhibition constant (Ki) at D(1A) dopamine receptor was over 10 µM; in experiment [1] it was “Not Active”; in experiment [2], over 10 µM. The IC50 with PC-3 is 47.7 µM.

With `O=c1c2ccccc2nnn1OCCCN1CCN(c2cccc3ccccc23)CC1`, the Ki on D(1A) dopamine receptor is over 10 µM; in experiment [1], “Not Active”; in experiment [2], 0.8 µM. For the same compound, the half-maximal inhibitory concentration (IC50) with PC-3 was determined as 12.3 µM.

`O=c1c2ccccc2nnn1OCCN1CCN(c2cccc3ccccc23)CC1`: the Ki on D(1A) dopamine receptor was over 10 µM; in experiment [1], “Not Active”; in experiment [2], over 10 µM. Further, in the experiment on PC-3, the “growth inhibition (GI)” value was “inactive”.

Take `N#C/N=C(\NCCCN1CCN(c2cccc3ccccc23)CC1)c1ccccn1`: the Ki on D(1A) dopamine receptor was over 10 µM; in experiment [1], “Not Active”; in experiment [2], over 10 µM. For the same compound, the half-inhibitory concentration (IC50) in the experiment with PC-3 was 23.8 µM.

`O=C1C2C3C=CC(C3)C2C(=O)N1OCCCN1CCN(c2cccc3ccccc23)CC1` (stereo unspecified): the Ki at D(1A) dopamine receptor was over 10 µM; in experiment [1], “Not Active”; in experiment [2], over 10 µM. Also, the “growth inhibition (GI)” value in the experiment with PC-3 is “Dose-dependent effect”. Moreover, the IC50 with PC-3 was found to be 13 µM.
